In patent US20220409617A1, “Drug Formulations and Methods of Treatment for Metabolic Disorders” (The Regents of the University of California, priority 2019, published 2022):

Tests used:
diet-induced obesity = experiment: Weight loss intervention study in HFD-fed mice; assay type: in vivo
Method: Given its ability to correct HFD-induced mitochondrial fragmentation in vivo, sphingolipid-like compound 893 was evaluated as an interventional therapy for diet-induced obesity. Six-week old male, C57BL/6J mice were fed the HFD for 45 days; an age-matched cohort of control mice was maintained on the SD throughout the study. After 45 days, the average body weight of HFD-fed mice was approximately 130% that of chow-fed mice (FIGS. 15 to 17). Using quantitative nuclear magnetic resonance imaging, fat mass represented 21% of the body weight of mice that had consumed the HFD for 45 days and 12% of body weight in controls fed the standard diet; changes in lean body mass were of lesser magnitude (FIG. 17). At this point, HFD-fed mice were randomly assigned to receive vehicle (water), 60 mg/kg, or 120 mg/kg sphingolipid-like compound 893 by gavage; SD mice were treated with vehicle. Based on the increased activity of mice during the dark cycle (ZT12-ZT24) and the plasma pharmacokinetics of orally administered sphingolipid-like compound 893 (see FIG. 12), mice were treated at ZT8.5 on Mondays, Wednesdays, and Fridays. […] In the group receiving 120 mg/kg sphingolipid-like compound 893, the rate of weight loss slowed after 10 days. […] Despite continued treatment with the high dose of sphingolipid-like compound 893, weight loss plateaued once body weight matched that of SD controls (FIGS. 16 and 18). […] As in a prior report where mice were dosed 5-7 days a week for 11 weeks (S. M. Kim, et al., 2016, cited supra), sphingolipid-like compound 893 was well-tolerated, and the behavior of sphingolipid-like compound 893-treated mice was overtly normal throughout the study.
All animal experiments were performed in accordance with the Institutional Animal Care and Use Committee of University of California, Irvine. Male mice were used in all experiments. C57BL/6J mice (stock no 000664) and ob/ob mice (stock no 000632) were purchased from the Jackson Laboratory and were acclimated for 7 days prior to beginning experiments. Mice were housed under a 12:12 h light-dark cycle at 20-22° C. in groups of 4-5. Cages contained ⅛″ corncob bedding (7092A, Envigo, Huntingdon, UK) enriched with ˜6 g of cotton fiber nestlets (Ancare Corp., Bellmore, N.Y.). Access to food and water was ad libitum unless otherwise specified. For HFD studies, 8 week old C57BL/6J males were randomly assigned to either a 45% kcal from fat diet (HFD; D12451, Research Diets Inc., New Brunswick, N.J.) or 10% kcal from fat diet designed to match D12451 for other components (SD; D12450B, Research Diets Inc). Mice were maintained on these diets for up to 22 weeks as indicated. Ob/ob mice were fed the vivarium stock diet which contained 16% kcal from fat (2020×, Envigo). Polypropylene feeding tubes (20 g×38 mm; Instech Laboratories Inc., Plymouth, Pa.) were utilized for gavage and dipped into a 1 g/ml sucrose solution immediately prior to treatment to induce salivation.
HFD-fed mice were randomly assigned to experimental groups receiving either vehicle (water) or sphingolipid-like compound 893 at 60 mg/kg or 120 mg/kg by oral gavage on Mondays, Wednesdays, and Fridays. Mice were maintained on the HFD throughout the study. The SD group was treated with vehicle on the same schedule. Group size was initially n=10; one animal from the 60 mg/kg group that was euthanized due to gavage error was excluded from the analysis making this group n=9. All treatments and measurements were performed between ZT8 and ZT10 unless otherwise noted. Body weight and food consumption were monitored Monday-Friday. Body composition was determined weekly in live animals using an EchoMRI™ Body Composition Analyzer (EchoMRI™ Corp., Singapore). Mice were euthanized and tissues collected 4 h after treatment. Where indicated, mice were fasted for 6 h.

leptin = experiment: Serum leptin ELISA in HFD-fed mice; assay type: in vivo, mouse
Method: Further assessment was performed to determine the level of leptin circulating in HFD-fed mice treated with sphingolipid-like compound 893. Mice were fed a HFD for 4 weeks and randomly distributed into two groups with the same mean weight. Mice were gavaged with water (n=7) or 120 mg/kg 893 (n=8) at ZT8.5. Blood was collected from the saphenous vein between ZT15-18 in pairs of treated vs. untreated animals and leptin levels were measured in serum using ELISA (CrystalChem, cat #90030).

CCCCCCCCc1ccc([C@H]2CCN[C@@H]2CO)cc1.Cl [compound 893]
Fat mass gain (diet-induced obesity; HFD-fed mice, 60 mg/kg): gained fat mass at a similar rate to mice fed a standard diet | Body weight versus chow-fed controls (diet-induced obesity; HFD-fed mice, 60 mg/kg by gavage Mon/Wed/Fri): no longer gained weight, but did not match chow-fed controls | Body weight change during treatment (diet-induced obesity; HFD-fed mice, 60 mg/kg or 120 mg/kg by gavage Mon/Wed/Fri): dose-dependent weight loss | Body weight versus chow-fed controls (diet-induced obesity; HFD-fed mice, 120 mg/kg by gavage Mon/Wed/Fri, after 2 weeks (6 doses)): no longer statistically different from that of mice continuously fed a standard chow diet | Tolerability (diet-induced obesity; HFD-fed mice, 60 or 120 mg/kg Mon/Wed/Fri): well-tolerated | Body composition underlying weight loss (fat mass, lean mass) (diet-induced obesity; HFD-fed mice, 60 or 120 mg/kg, EchoMRI): a decline in fat mass with little change in lean mass | Reduction of body weight (diet-induced obesity; HFD-fed wild type mice, six doses of 120 mg/kg over 2 weeks): 10% | Leptin production by adipocytes (leptin; in vivo): reduced leptin production by adipocytes in vivo | Circulating leptin levels (serum) (leptin; mice on HFD 4 weeks, 120 mg/kg at ZT8.5, blood at ZT15-18): lowered levels of circulating leptin
